Test results published in patent US9340577B2, “HLA binding motifs and peptides and their uses” (priority 1992, dated 2016).
Like-named read-outs stand apart in the source and are kept apart here. Residues, ends and D or L forms follow the SMILES beside them. No end group written: not given here.

Key:
B*3503 = B*3503 (Homo sapiens, UniProt P01889, A329T/A93T/A95T/C349S/D201E/D98Y/E176V/E187L/E204Q/E69T/I218V/K202T/L119I/Q94N/R155S/R180L/S121R/S35A/S48A/T118I/V127L/V306I/V36M/Y140F/Y91F); assay: biochemical; type: binding
B*3502 = B*3502 (Homo sapiens, UniProt P01889, A329T/A93T/A95T/C349S/D138N/D201E/D98Y/E176V/E187L/E204Q/E69T/I218V/K202T/L119I/L133F/Q94N/R155S/R180L/S121R/S35A/S48A/T118I/V127L/V306I/V36M/Y91F); assay: biochemical; type: binding
B*0702 (B*0701) = B*0702 (B*0701) (Homo sapiens, UniProt P01889); assay: biochemical; type: binding
B*5401 (B54) = B*5401 (B54) (Homo sapiens, UniProt P01889, A329T/C349S/D138N/D201E/E176V/E187T/E204Q/E69G/I76V/K202T/L119W/R155S/R180L/S121T/S35A/S48A/V127L/V306I/V36M/Y140L); conditions: read-out: BINDING CAPACITY (IC50 nM) B*5401
B*3501 = B*3501 (Homo sapiens, UniProt P01889, A329T/A93T/A95T/C349S/D201E/D98Y/E176V/E187L/E204Q/E69T/I218V/K202T/L119I/Q94N/R155S/R180L/S121R/S35A/S48A/T118I/V127L/V306I/V36M/Y140S/Y91F); assay: biochemical
DRB4*0101 = DRB4*0101 (Homo sapiens, UniProt P01903+P13762, G164S); assay: biochemical; type: binding; conditions: read-out: Binding affinity DRB4 *0101
DRB1*0802 = DRB1*0802 (Homo sapiens, UniProt P01903+P01911, A100R/A103L/A169T/F76Y/H45Y/I96F/K41T/L162R/M171V/P40S/Q125H/Q178H/Q39Y/Q99D/R218S/R42G/S66Y/V115G/W38E); assay: biochemical; type: binding; conditions: read-out: DRB1*0802
DR1 (DRB1*0101) = DR1 (DRB1*0101) (Homo sapiens, UniProt P01903+P01911, A100R/D57E/F55L/F60I/F76Y/I96L/L162R/M171V/P40L/Q125E/R42F/V115G/Y59C); assay: biochemical; type: binding; conditions: read-out: DRB1*0101
DR4w4 (DRB1*0401) = DR4w4 (DRB1*0401) (Homo sapiens, UniProt P01903+P01911, A100K/A169T/F76Y/I96L/K127E/L162R/M171V/N62H/P40V/Q125Y/R42H/S133A/S149N/S66Y/V115G/V209L/W38E); assay: biochemical; type: binding; conditions: read-out: Binding affinity DRB1 *0401
DRB1*0901 = DRB1*0901 (Homo sapiens, UniProt P01903+P01911, A100R/A103E/D57H/D86V/F55Y/F60I/F76Y/I96F/K127E/L162R/M171V/P40D/Q125H/Q99R/R33Q/R42F/S133A/S66N/T210M/V115G/W38K/Y107V/Y59G/Y89S); assay: biochemical; type: binding; conditions: read-out: DRB1*0901
DRB1*1302 = DRB1*1302 (Homo sapiens, UniProt P01903+P01911, A100E/A169T/K41T/L162R/M171V/P40S/Q125H/Q178H/Q39Y/Q99D/R42S/S66N/T262R/V115G/W38E/Y61H); assay: biochemical; type: binding; conditions: read-out: DRB1*1302
DRB1*1501 = DRB1*1501 (Homo sapiens, UniProt P01903+P01911); assay: biochemical; type: binding; conditions: read-out: Binding affinity DRB1 *1501
DRB3*0101 = DRB3*0101 (Homo sapiens, UniProt P01903+P79483); assay: biochemical; type: binding; conditions: read-out: DRB3*0101
DRB5*0101 = DRB5*0101 (Homo sapiens, UniProt P01903+Q30154)
DR7 (DRB1*0701) = DR7 (DRB1*0701) (Homo sapiens, UniProt P01903+P01911, A100R/A102G/A103Q/D57E/D86V/E43K/F76Y/K127E/L162R/M171V/P40G/Q125H/Q99D/R33Q/R42Y/R54Q/S133A/S66F/T210M/V115G/Y107V/Y59L/Y89S); assay: biochemical; type: binding; conditions: read-out: DRB1*0701
A02 supertype = type: binding, human
H-2Db = H-2Db (Mus musculus, UniProt P01899); assay: biochemical; type: binding, murine
DR5 = conditions: read-out: binding affinity for DR5
DR2 = conditions: read-out: binding affinity for DR2
A01 supertype = type: binding, human
B*0801 = B*0801 (Homo sapiens, UniProt P01889, A93T/A95T/D138N/E176V/E187T/K202T/Q94N/R180D/S35A/V36M/Y33D/Y91F); conditions: read-out: IC50 for B*0801
A31 (A*3101) = A31 (A*3101) (Homo sapiens, UniProt P04439, A270S/D185E/E176V/E277Q/F33T/G231S/G80R/H175R/I121M/I218V/I322F/K168Q/L300P/L318F/M331R/P217A/Q94H/R138Q/T323A/T345S/T97I/V358M); assay: biochemical; type: binding
HLA-A11 (A*1101) = HLA-A11 (A*1101) (Homo sapiens, UniProt P04439, A114D/D185E/E176A/F33Y/L180Q/S129P/T187R); assay: biochemical; type: binding
A03/11 supertype = type: binding, human
A*2902 = A*2902 (Homo sapiens, UniProt P04439, A270S/D101N/D185E/E176V/E277Q/E87Q/F33T/G231S/H175R/I121M/I218V/I322F/K168Q/L300P/L318F/M331R/P208A/P217A/Q86L/T323A/T345S/V100A/V358M); assay: biochemical; type: binding
A*3002 = A*3002 (Homo sapiens, UniProt P04439, D101N/D140H/D185E/E176R/F33S/G80R/H175R/K168Q/Q94H/R138E/R41S/V100E); assay: biochemical; type: binding
HLA-A1 (A*0101) = HLA-A1 (A*0101) (Homo sapiens, UniProt P04439, A114D/A174V/A182V/D101N/D185E/E176A/E190D/L180R/Q94H/R68K/S129P/T187R/V100A/V91M/W191G); assay: biochemical; type: binding
A*6801 = A*6801 (Homo sapiens, UniProt P04439, A269V/D185E/E176V/E277Q/E87N/F33Y/G231S/I121M/I166T/I218V/L180W/L300P/L318F/N151K/P208A/P217A/Q86R/R169H/T345S); assay: biochemical; type: binding
A*2601 = A*2601 (Homo sapiens, UniProt P04439, A114D/A173T/A270S/D101N/D185E/E277Q/E87N/F33Y/G231S/I121R/I218V/K168Q/L180W/L300P/L318F/P208A/P217A/Q86R/Q94H/R138Q/S129P/T187R/T323A/T345S/V100A/V358M); assay: biochemical; type: binding
A*3301 = A*3301 (Homo sapiens, UniProt P04439, A270S/D185E/E176V/E277Q/E87N/F33T/G231S/H175R/I121M/I218V/I322F/K168Q/K210R/L300P/L318F/M331R/P217A/Q86R/Q94H/R138Q/T323A/T345S/T97I/V358M/Y195H); assay: biochemical; type: binding

Question: What does the source list for CC(C)C[C@H](NC(=O)[C@H](C)NC(=O)[C@@H](NC(=O)[C@H](CC(C)C)NC(=O)[C@H](C)NC(=O)[C@@H](NC(=O)[C@@H](NC(=O)[C@H](CCCNC(=N)N)NC(=O)[C@@H]1CCCN1C(=O)[C@H](C)N)[C@@H](C)O)C(C)C)[C@@H](C)O)C(=O)O [APRTVALTAL]?
Answer: IC50 (B*3503): > 30000 nM; IC50 (B*3502): > 30000 nM; IC50 (B*0702 (B*0701)): 4.2 nM; IC50 (B*5401 (B54)): 17300 nM; IC50 (B*3501): > 30000 nM

Question: For CSCC[C@H](NC(=O)[C@H](Cc1ccccc1)NC(=O)[C@H](CCCCN)NC(=O)[C@@H](NC(=O)[C@@H](NC(=O)[C@H](CCCCN)NC(=O)[C@H](CCC(N)=O)NC(=O)[C@@H]1CCCN1C(=O)[C@H](Cc1c[nH]cn1)NC(=O)[C@@H](NC(=O)[C@H](CCC(N)=O)NC(=O)[C@H](C)NC(=O)[C@@H](N)CS)C(C)C)C(C)C)[C@@H](C)O)C(=O)N[C@@H](CC(C)C)C(=O)N[C@@H](CS)C(=O)O [Peptide 68.0078], which IC50 (DRB4*0101) is on record?
Answer: 604 nM

Question: What about the IC50 (DRB1*0802) of the same compound?
Answer: 8730 nM

Question: What about the IC50 (DR1 (DRB1*0101)) of the same compound?
Answer: 10200 nM

Question: And the IC50 (DR4w4 (DRB1*0401))?
Answer: 2570 nM

Question: And the IC50 (DRB1*0901)?
Answer: 34900 nM

Question: And the IC50 (DRB1*1302)?
Answer: 2190 nM

Question: And the IC50 (DRB1*1501)?
Answer: 809 nM

Question: What about the IC50 (DRB3*0101) of the same compound?
Answer: > 13500 nM

Question: What about the IC50 (DRB5*0101; read-out: Binding affinity DRB5 *0101) of the same compound?
Answer: 1230 nM

Question: And the IC50 (DR7 (DRB1*0701))?
Answer: 32300 nM

Question: CC(C)C[C@H](NC(=O)[C@H](Cc1c[nH]c2ccccc12)NC(=O)[C@H](CCCCN)NC(=O)CNC(=O)[C@H](CC(C)C)NC(=O)[C@H](CS)NC(=O)[C@H](Cc1c[nH]cn1)NC(=O)[C@H](CS)NC(=O)[C@@H](NC(=O)[C@H](CCCNC(=N)N)NC(=O)[C@H](CCC(=O)O)NC(=O)[C@H](CC(C)C)NC(=O)[C@H](CO)NC(=O)[C@H](Cc1c[nH]cn1)NC(=O)[C@H](C)NC(=O)[C@@H](N)CCC(N)=O)C(C)C)C(=O)NCC(=O)N[C@@H](Cc1c[nH]cn1)C(=O)N1CCC[C@H]1C(=O)N[C@@H](CC(=O)O)C(=O)N[C@@H](CCCCN)C(=O)O [Peptide 868.01] (H-QAHSLERVCHCLGKWLGHPDK-OH) was tested. Which IC50 (DRB5*0101; read-out: DRB5*0101) did it give?
Answer: 2500 nM

Question: And the IC50 (DR7 (DRB1*0701))?
Answer: > 250000 nM

Question: How did the Degeneracy (A02 supertype) turn out when CC[C@H](C)[C@H](NC(=O)[C@H](CS)NC(=O)[C@@H](NC(=O)[C@@H](N)Cc1ccc(O)cc1)[C@@H](C)O)C(=O)N[C@@H](CC(=O)O)C(=O)NCC(=O)N[C@@H](CCC(N)=O)C(=O)N[C@@H](CS)C(=O)N[C@H](C(=O)N[C@H](C(=O)O)C(C)C)[C@@H](C)O [Peptide 1593.58] (H-YTCIDGQCTV-OH) was run?
Answer: 3

Question: For CSCC[C@H](NC(=O)[C@H](Cc1c[nH]c2ccccc12)NC(=O)[C@@H](NC(=O)[C@H](Cc1ccc(O)cc1)NC(=O)[C@H](Cc1ccccc1)NC(=O)[C@H](CC(=O)O)NC(=O)[C@H](Cc1ccc(O)cc1)NC(=O)[C@@H](NC(=O)[C@@H](N)CO)C(C)C)C(C)C)C(=O)O [Peptide F138.03], which IC50 (H-2Db) is on record?
Answer: 3370 nM

Question: For CC[C@H](C)[C@H](NC(=O)CNC(=O)[C@@H](NC(=O)[C@H](Cc1ccccc1)NC(=O)[C@H](CCCCN)NC(=O)[C@H](CO)NC(=O)[C@H](CC(N)=O)NC(=O)[C@H](C)NC(=O)[C@H](CCCCN)NC(=O)[C@@H](NC(=O)[C@H](Cc1ccc(O)cc1)NC(=O)[C@@H](N)CCC(N)=O)[C@@H](C)CC)[C@@H](C)CC)C(=O)N[C@H](C(=O)N[C@@H](CCC(=O)O)C(=O)O)[C@@H](C)O [TT830-843], which IC50 (DR5) is on record?
Answer: 10 to 100 nM

Question: And the IC50 (DR2)?
Answer: 10 to 100 nM

Question: AFKDLFVVY was tested. Which Degeneracy (A01 supertype) did it give?
Answer: 2

Question: FLKDYQLL [HIV gp 586-593 Y1>F, Q5>Y] was tested. Which IC50 (B*0801) did it give?
Answer: 14 nM

Question: Which IC50 (A31 (A*3101)) does the source give for HIGPGRAFY [Peptide 1595.03] here?
Answer: 1420 nM

Question: What about the IC50 (HLA-A11 (A*1101)) of the same compound?
Answer: 691 nM

Question: And the Degeneracy (A03/11 supertype)?
Answer: 2

Question: And the IC50 (A*2902)?
Answer: 157 nM

Question: And the IC50 (A*3002)?
Answer: 11 nM

Question: And the IC50 (HLA-A1 (A*0101))?
Answer: 1310 nM

Question: And the Degeneracy (A01 supertype)?
Answer: 3

Question: What about the IC50 (A*6801) of the same compound?
Answer: 29 nM

Question: And the IC50 (A*2601)?
Answer: 58 nM

Question: And the IC50 (A*3301)?
Answer: 4500 nM

Question: Which Degeneracy (A02 supertype) does the source give for HTQELFISNIV [Peptide 9013.0316] here?
Answer: 1

Question: Which Degeneracy (A03/11 supertype) does the source give for LTISYGRKK [Peptide 66.0060] here?
Answer: 2

Question: How did the IC50 (H-2Db) turn out when SIQFFGEL [Peptide F079.04] was run?
Answer: > 44000 nM

Question: Which IC50 (H-2Db) does the source give for SIQFFGERAL [Peptide F079.03] here?
Answer: > 44000 nM
